The values below come from patent US9345722B2, “Pharmaceutical formulations for the treatment of alzheimer's disease” (EMISPHERE TECHNOLOGIES, INC., priority 2006, dated 2016).

Each structure is given as a SMILES string.

Data set [1] in a line: CPHPC added to solvents to the point of saturation (donor solutions). The data set is classed as physicochemical. Conditions: ethanolamine as solvent. As to the method:
CPHC was added to the solvents listed in Table 1 below to the point of saturation: […]

Data set [2] can be described thus: Oral delivery of CPHPC in rats, serum CPHPC concentrations. The class given is in vivo. As to the method: One group of rats were dosed by oral gavage a solution containing 200 mg/kg SNAC and 10 mg/kg CPHPC (Group 1). The dosing volume was 1 mL/kg. Two groups of rats also received, respectively, control arms of 10 mg/kg CPHPC alone via oral gavage (Group 2) and 0.2 mg/kg of CPHPC via IV (Group 3).
Serum CPHPC concentrations […]) were measured over 40 minutes.

The conditions of data set [3]: investigational studies, background; cited from earlier work.

As for `O=C(O)[C@H]1CCCN1C(=O)CCCCC(=O)N1CCC[C@@H]1C(=O)O` [CPHPC, R-1-(6-(R-2-carboxy-pyrrolidin-1-yl)-6-oxo-hexanoyl)pyrrolidine-2-carboxylic acid], the “Solubility of CPHPC in ethanolamine compared with the other solvents” value in data set [1] is given as “much more soluble in ethanolamine”. Moreover, the Serum CPHPC concentration in data set [2] (Group 1: 200 mg/kg SNAC and 10 mg/kg CPHPC via PO, 0 min.) worked out at 0 ng/mL; in data set [2] (Group 1: 200 mg/kg SNAC and 10 mg/kg CPHPC via PO, 5 min.), 2960 ± 1210 ng/mL; in data set [2] (Group 1: 200 mg/kg SNAC and 10 mg/kg CPHPC via PO, 10 min.), 5480 ± 526 ng/mL; in data set [2] (Group 1: 200 mg/kg SNAC and 10 mg/kg CPHPC via PO, 20 min.) it was 2800 ± 400 ng/mL; in data set [2] (Group 1: 200 mg/kg SNAC and 10 mg/kg CPHPC via PO, 40 min.), 1440 ± 219 ng/mL; in data set [2] (Group 2: 10 mg/kg CPHPC alone via PO, 0 min.), 0 ng/mL. The Serum CPHPC concentration in data set [2] (Group 2: 10 mg/kg CPHPC alone via PO, 5 min.) turned out to be 1060 ± 107 ng/mL; in data set [2] (Group 2: 10 mg/kg CPHPC alone via PO, 10 min.), 1420 ± 171 ng/mL; in data set [2] (Group 2: 10 mg/kg CPHPC alone via PO, 20 min.), 667 ± 97.1 ng/mL; in data set [2] (Group 2: 10 mg/kg CPHPC alone via PO, 40 min.) it was 175 ± 15 ng/mL; in data set [2] (Group 3: 0.2 mg/kg CPHPC via IV, 0 min.), 0 ng/mL; in data set [2] (Group 3: 0.2 mg/kg CPHPC via IV, 5 min.) it was 223 ± 19.5 ng/mL. Besides, the Serum CPHPC concentration is 229 ± 44.8 ng/mL in data set [2] (Group 3: 0.2 mg/kg CPHPC via IV, 10 min.); 170 ± 26.2 ng/mL in data set [2] (Group 3: 0.2 mg/kg CPHPC via IV, 20 min.); 65.4 ± 25.7 ng/mL in data set [2] (Group 3: 0.2 mg/kg CPHPC via IV, 40 min.). In data set [3], the oral bioavailability entry was “poor oral bioavailability”.
